Each block holds one molecule with its values, some of them ahead of it.
Tests used:
[1] = Ratio of drug concentration in brain to plasma in mouse assessed as unbound fraction; type: ADME, cell-free; details: brain and plasma, read-out: K(p,uu,brain)
[2] = Ratio of AUC (0 to 24 hrs) in brain to plasma in mouse; type: ADME, cell-free; details: brain and plasma, read-out: Ratio AUC
[3] = Ratio of drug concentration in brain to plasma in rat; type: ADME, cell-free; details: brain and plasma, read-out: BPR
[4] = Ratio of drug concentration in brain to plasma in mouse; type: ADME, cell-free; details: brain and plasma, read-out: BPR
[5] = Ratio of drug concentration in CSF to plasma in mouse assessed as unbound fraction; type: ADME, tissue-based; details: CSF and plasma
[6] = Ratio of AUC in brain to plasma in rat at 25 mg/kg, po; type: ADME, organism-based; details: brain and plasma, read-out: Ratio AUC
[7] = Ratio of AUC in brain to plasma in rat at 75 mg/kg, po; type: ADME, organism-based; details: brain and plasma, read-out: Ratio AUC
[8] = Ratio of drug concentration in brain to plasma in mouse at 75 mg/kg, po; type: ADME, organism-based; details: brain and plasma, read-out: BPR
[9] = Ratio of drug concentration in brain to plasma in rat at 3.5 mg/kg, iv; type: ADME, organism-based; details: brain and plasma, read-out: BPR

- Kp [2]: 0.72
Compound: COc1cc(N2CCC(N3CCN(C)CC3)CC2)ccc1Nc1ncnc(Nc2ccccc2S(=O)(=O)C(C)C)n1 [ASP-3026]

- Kp [7]: 0.24
Compound: CC(C)(O)CC(=O)NCCn1ccc2ncnc(Nc3ccc(Oc4cccc(C(F)(F)F)c4)c(Cl)c3)c21 [TAK-285]

Second part, the molecule before the results:

Compound: CCN1CCN(Cc2ccc(Nc3ncc(F)c(-c4cc(F)c5nc(C)n(C(C)C)c5c4)n3)nc2)CC1 [ABEMACICLIB]
- Kp uu [1]: 0.2

Compound: COc1cc(Nc2c(C#N)cnc3cc(OCCCN4CCN(C)CC4)c(OC)cc23)c(Cl)cc1Cl [BOSUTINIB]
- Kp [3]: 0.4

Compound: COc1cc2c(Oc3ccc(NC(=O)C4(C(=O)Nc5ccc(F)cc5)CC4)cc3F)ccnc2cc1OCCCN1CCOCC1 [FORETINIB]
- Kp [4]: 0.2

Compound: COc1cc2ncnc(Nc3ccc(F)c(Cl)c3)c2cc1OCCCN1CCOCC1 [GEFITINIB]
- Kp uu [1]: 0.02
- Kp uu [5]: 0.09

Compound: Cc1ccc(C(=O)Nc2ccc(CN3CCN(C)CC3)c(C(F)(F)F)c2)cc1C#Cc1cnc2cccnn12 [PONATINIB]
- Kp [4]: 1.6

Compound: CC[C@H](CO)Nc1nc(NCc2ccccc2)c2ncn(C(C)C)c2n1 [SELICICLIB]
- Kp [6]: 0.3

Compound: Cc1cc(Nc2ncnc3ccc(NC4=NC(C)(C)CO4)cc23)ccc1Oc1ccn2ncnc2c1 [TUCATINIB]
- Kp [8]: 0.5

Compound: CN[C@@H]1C[C@H]2O[C@@](C)([C@@H]1OC)n1c3ccccc3c3c4c(c5c6ccccc6n2c5c31)C(=O)N[C@H]4O [UCN-01]
- Kp [9]: 0.5

— ChEMBL document CHEMBL5252526, “Small Molecule Kinase Inhibitors for the Treatment of Brain Cancer” (J Med Chem, 2016)
